Values quoted from earlier work, collected in patent US11433058B2, “Non-pulsatile prolonged-release betahistine oral solid compositions” (INTAS PHARMACEUTICALS LTD., priority 2017, dated 2022).
Where a name gives a salt, the structure may show the parent alone.

Columns and labels:
[1] = per WO2014001267
[2] = oral; immediate release tablet or orodispersible tablet (Betaserc SmPC)

water solubility [1] [mg/mL]	absolute bioavailability [2]	SMILES
49.3		CNCCc1ccccn1 [Betahistine dihydrochloride]
	about 99%	O=C(O)Cc1ccccn1 [Example 2-PAA, 2-pyridylacetic acid]
